Laboratory results from US10618916B2, “Heterocyclic compounds as immunomodulators” (Incyte Corporation, priority 2018, dated 2020).

Experiments:
[1] = system: U2OS/PD-L1 cells and Jurkat-PD-1-SHP cells; experiment: Src homology region 2 domain-containing phosphatase (SHP) assay; assay type: cell-based; settings: Homo sapiens, U2OS
How it was run: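 U2OS/PD-L1 and Jurkat-PD-1-SHP cells (5000 each per well) were co-incubated with compound for 2 h at 37 °C in RPMI1640 with 1% FBS, 0.05% DMSO final. PathHunter chemiluminescence was read after 1 h at room temperature, and IC50 was fitted from percent of DMSO-control activity.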

[2] = system: PD-L1 aAPC/CHO-K1 cells and Jurkat-PD-1-NFAT effector cells; experiment: Nuclear factor of activated T-cells (NFAT) assay; assay type: cell-based; settings: Cricetulus griseus, CHO-K1
How it was run: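 CHO-K1 cells expressing PD-L1 aAPC were co-cultured with Jurkat-PD-1-NFAT effector cells in RPMI 1640 with 1% FBS and compound (0.4% DMSO; top concentration 2 μM) for 24 h at 37 °C. Bio-Glo luminescence was read, fold induction normalised to DMSO wells, and EC50 fitted from percent of control compound activity.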

[3] = molecular target: PD-1/PD-L1 protein/protein interaction (recombinant human PD-L1 and human PD-1) (Homo sapiens (Human), UniProt Q9NZQ7); experiment: Homogeneous Time-Resolved Fluorescence (HTRF) PD-1/PD-L1 binding assay
Sequence of PD-1/PD-L1 protein/protein interaction (recombinant human PD-L1 and human PD-1) (Q9NZQ7 19-238): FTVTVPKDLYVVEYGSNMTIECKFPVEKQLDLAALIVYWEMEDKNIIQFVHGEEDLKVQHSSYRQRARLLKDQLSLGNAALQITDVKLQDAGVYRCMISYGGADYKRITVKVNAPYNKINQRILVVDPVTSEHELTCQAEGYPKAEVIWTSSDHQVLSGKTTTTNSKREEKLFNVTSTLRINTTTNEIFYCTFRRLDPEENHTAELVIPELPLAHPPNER
How it was run: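 Human PD-L1 (19-238, C-His; 10 nM final) and PD-1 (25-167, C-Fc; 3 nM final) preincubated 40 min with inhibitor in PBS pH 7.4, 0.05% Tween-20, 0.1% BSA, 1% DMSO, 25 °C. Eu-anti-human IgG (1 nM) and anti-His-APC (20 nM) added for 60 min; 665/620 nm ratio; IC50 from percent-control curves.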

PD-L1 = PD-L1 (Homo sapiens (Human), UniProt Q9NZQ7); experiment: PD-L1 whole blood internalization assay; assay type: cell-based; settings: 24 HR, PD-L1 expression on CD14+ cells, human interferon γ
Sequence of PD-L1 (Q9NZQ7 19-290): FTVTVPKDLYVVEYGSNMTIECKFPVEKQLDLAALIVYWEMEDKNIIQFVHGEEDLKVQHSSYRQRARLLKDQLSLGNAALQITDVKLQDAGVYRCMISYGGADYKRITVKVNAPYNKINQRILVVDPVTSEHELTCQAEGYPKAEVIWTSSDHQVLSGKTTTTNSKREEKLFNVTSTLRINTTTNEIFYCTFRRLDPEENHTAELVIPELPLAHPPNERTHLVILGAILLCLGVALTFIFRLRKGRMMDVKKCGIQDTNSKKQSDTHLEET

IC50 [1] [nM]	IC50 [3] [nM]	IC50 (PD-L1) [nM]	Structure (SMILES)	EC50 [2] [nM]
≤ 10	≤ 5	10 to 100	Cn1c(C(=O)Nc2cccc(-c3cccc(NC(=O)c4nc5c(n4C)CCN(CCC46CCC(C(=O)O)(CC4)C6)C5)c3Cl)c2Cl)nc2c1CCN(CCC13CCC(C(=O)O)(CC1)C3)C2 [Example 17, 4,4′-(((((2,2′-dichloro-[1,1′-biphenyl]-3,3′-diyl)bis(azanediyl))bis(carbonyl))bis(1-methyl-1,4,6,7-tetrahydro-5H-imidazo[4,5-c]pyridine-2,5-diyl))bis(ethane-2,1-diyl))bis(bicyclo[2.2.1]heptane-1-carboxylic acid)]	10 to 100
≤ 10	≤ 5	10 to 100	Cn1c(C(=O)Nc2cccc(-c3cccc(NC(=O)c4nc5c(n4C)CCN(CC46CCC(C(=O)O)(CC4)C6)C5)c3Cl)c2Cl)nc2c1CCN(CCC13CCC(C(=O)O)(CC1)C3)C2 [Example 18, 4-((2-((3′-(5-(2-(4-carboxybicyclo[2.2.1]heptan-1-yl)ethyl)-1-methyl-4,5,6,7-tetrahydro-1H-imidazo[4,5-c]pyridine-2-carboxamido)-2,2′-dichloro-[1,1′-biphenyl]-3-yl)carbamoyl)-1-methyl-1,4,6,7-tetrahydro-5H-imidazo[4,5-c]pyridin-5-yl)methyl)bicyclo[2.2.1]heptane-1-carboxylic acid]	10 to 100
≤ 10	≤ 5	10 to 100	Cn1c(C(=O)Nc2cccc(-c3cccc(NC(=O)c4nc5c(n4C)CCN(CC(=O)O)C5)c3Cl)c2Cl)nc2c1CCN(CCC13CCC(C(=O)O)(CC1)C3)C2 [Example 19, 4-(2-(2-((3′-(5-(carboxymethyl)-1-methyl-4,5,6,7-tetrahydro-1H-imidazo[4,5-c]pyridine-2-carboxamido)-2,2′-dichloro-[1,1′-biphenyl]-3-yl)carbamoyl)-1-methyl-1,4,6,7-tetrahydro-5H-imidazo[4,5-c]pyridin-5-yl)ethyl)bicyclo[2.2.1]heptane-1-carboxylic acid]	10 to 100
≤ 10	≤ 5	10 to 100	Cn1c(C(=O)Nc2cccc(-c3cccc(NC(=O)c4nc5c(n4C)CCN(CCC46CCC(C(=O)O)(CC4)C6)C5)c3Cl)c2Cl)nc2c1CCN(CCCC(=O)O)C2 [Example 20, 4-(2-(2-((3′-(5-(3-carboxypropyl)-1-methyl-4,5,6,7-tetrahydro-1H-imidazo[4,5-c]pyridine-2-carboxamido)-2,2′-dichloro-[1,1′-biphenyl]-3-yl)carbamoyl)-1-methyl-1,4,6,7-tetrahydro-5H-imidazo[4,5-c]pyridin-5-yl)ethyl)bicyclo[2.2.1]heptane-1-carboxylic acid]	10 to 100
≤ 10	≤ 5	10 to 100	Cn1c(C(=O)Nc2cccc(-c3cccc(NC(=O)c4nc5c(n4C)CCN(CC4(C(=O)O)CC4)C5)c3Cl)c2Cl)nc2c1CCN(CCC13CCC(C(=O)O)(CC1)C3)C2 [Example 22, 4-(2-(2-((3′-(5-((1-carboxycyclopropyl)methyl)-1-methyl-4,5,6,7-tetrahydro-1H-imidazo[4,5-c]pyridine-2-carboxamido)-2,2′-dichloro-[1,1′-biphenyl]-3-yl)carbamoyl)-1-methyl-1,4,6,7-tetrahydro-5H-imidazo[4,5-c]pyridin-5-yl)ethyl)bicyclo[2.2.1]heptane-1-carboxylic acid]	10 to 100
≤ 10	≤ 5	100 to 500	Cn1c(C(=O)Nc2cccc(-c3cccc(NC(=O)c4nc5c(n4C)CCN(CC46CCC(C(=O)O)(CC4)CC6)C5)c3Cl)c2Cl)nc2c1CCN(CCC13CCC(C(=O)O)(CC1)C3)C2 [Example 23, 4-((2-((3′-(5-(2-(4-carboxybicyclo[2.2.1]heptan-1-yl)ethyl)-1-methyl-4,5,6,7-tetrahydro-1H-imidazo[4,5-c]pyridine-2-carboxamido)-2,2′-dichloro-[1,1′-biphenyl]-3-yl)carbamoyl)-1-methyl-1,4,6,7-tetrahydro-5H-imidazo[4,5-c]pyridin-5-yl)methyl)bicyclo[2.2.2]octane-1-carboxylic acid]	10 to 100
≤ 10	≤ 5	10 to 100	Cn1c(C(=O)Nc2cccc(-c3cccc(NC(=O)c4nc5c(n4C)CCN(CC46CC(C(=O)O)(C4)C6)C5)c3Cl)c2Cl)nc2c1CCN(CCC13CCC(C(=O)O)(CC1)C3)C2 [Example 24, 3-((2-((3′-(5-(2-(4-carboxybicyclo[2.2.1]heptan-1-yl)ethyl)-1-methyl-4,5,6,7-tetrahydro-1H-imidazo[4,5-c]pyridine-2-carboxamido)-2,2′-dichloro-[1,1′-biphenyl]-3-yl)carbamoyl)-1-methyl-1,4,6,7-tetrahydro-5H-imidazo[4,5-c]pyridin-5-yl)methyl)bicyclo[1.1.1]-pentane-1-carboxylic acid]	10 to 100
10 to 100	≤ 5	100 to 500	Cn1c(C(=O)Nc2cccc(-c3cccc(NC(=O)c4nc5c(n4C)CCN(CCC46CCC(C(=O)O)(CC4)C6)C5)c3Cl)c2Cl)nc2c1CCN(CCc1ccc(C(=O)O)cc1)C2 [Example 25, 4-(2-(2-((3′-(5-(4-carboxyphenethyl)-1-methyl-4,5,6,7-tetrahydro-1H-imidazo[4,5-c]pyridine-2-carboxamido)-2,2′-dichloro-[1,1′-biphenyl]-3-yl)carbamoyl)-1-methyl-1,4,6,7-tetrahydro-5H-imidazo[4,5-c]pyridin-5-yl)ethyl)bicyclo[2.2.1]heptane-1-carboxylic acid]	10 to 100
≤ 10	≤ 5	10 to 100	Cc1c(NC(=O)c2nc3c(n2C)CCNC3)cccc1-c1cccc(NC(=O)c2nc3c(n2C)CCN(CCC24CCC(C(=O)O)(CC2)C4)C3)c1Cl [Example 27, 4-(2-(2-((2-chloro-2′-methyl-3′-(1-methyl-4,5,6,7-tetrahydro-1H-imidazo[4,5-c]pyridine-2-carboxamido)-[1,1′-biphenyl]-3-yl)carbamoyl)-1-methyl-1,4,6,7-tetrahydro-5H-imidazo[4,5-c]pyridin-5-yl)ethyl)bicyclo[2.2.1]heptane-1-carboxylic Acid]	10 to 100
≤ 10	≤ 5	10 to 100	Cc1c(NC(=O)c2nc3c(n2C)CCN(C2CCN(C(N)=O)CC2)C3)cccc1-c1cccc(NC(=O)c2nc3c(n2C)CCN(CCC24CCC(C(=O)O)(CC2)C4)C3)c1Cl [Example 30, 4-(2-(2-((3′-(5-(1-carbamoylpiperidin-4-yl)-1-methyl-4,5,6,7-tetrahydro-1H-imidazo[4,5-c]pyridine-2-carboxamido)-2-chloro-2′-methyl-[1,1′-biphenyl]-3-yl)carbamoyl)-1-methyl-1,4,6,7-tetrahydro-5H-imidazo[4,5-c]pyridin-5-yl)ethyl)bicyclo[2.2.1]heptane-1-carboxylic acid]	10 to 100
≤ 10	≤ 5	10 to 100	Cc1c(NC(=O)c2nc3c(n2C)CCN(C[C@@H](C)O)C3)cccc1-c1cccc(NC(=O)c2nc3c(n2C)CCN(CCC24CCC(C(=O)O)(CC2)C4)C3)c1Cl [Example 31, (R)-4-(2-(2-((2-chloro-3′-(5-(2-hydroxypropyl)-1-methyl-4,5,6,7-tetrahydro-1H-imidazo[4,5-c]pyridine-2-carboxamido)-2′-methyl-[1,1′-biphenyl]-3-yl)carbamoyl)-1-methyl-1,4,6,7-tetrahydro-5H-imidazo[4,5-c]pyridin-5-yl)ethyl)bicyclo[2.2.1]heptane-1-carboxylic Acid]	10 to 100
≤ 10	≤ 5	10 to 100	Cc1c(NC(=O)c2nc3c(n2C)CCN(CCC24CCC(C(=O)O)(CC2)C4)C3)cccc1-c1cccc(NC(=O)c2nc3c(n2C)CCN(CCC24CCC(C(=O)O)(CC2)C4)C3)c1Cl [Example 34, 4,4′-(((((2-chloro-2′-methyl-[1,1′-biphenyl]-3,3′-diyl)bis(azanediyl))bis(carbonyl))bis(1-methyl-1,4,6,7-tetrahydro-5H-imidazo[4,5-c]pyridine-2,5-diyl))bis(ethane-2,1-diyl))bis(bicyclo[2.2.1]heptane-1-carboxylic acid)]	10 to 100

Structure (SMILES)	IC50 [1] [nM]	IC50 [3] [nM]	IC50 (PD-L1) [nM]	EC50 [2] [nM]
Cn1c(C(=O)Nc2cccc(-c3cccc(NC(=O)c4nc5c(n4C)CCN(CC(C)(C)C(=O)O)C5)c3Cl)c2Cl)nc2c1CCN(CCC13CCC(C(=O)O)(CC1)C3)C2 [Example 21, 4-(2-(2-((3′-(5-(2-carboxy-2-methylpropyl)-1-methyl-4,5,6,7-tetrahydro-1H-imidazo[4,5-c]pyridine-2-carboxamido)-2,2′-dichloro-[1,1′-biphenyl]-3-yl)carbamoyl)-1-methyl-1,4,6,7-tetrahydro-5H-imidazo[4,5-c]pyridin-5-yl)ethyl)bicyclo[2.2.1]heptane-1-carboxylic acid]	≤ 10	≤ 5	10 to 100	10 to 100
